Assay results: US5888494A, “Film-forming compositions of antihyperalgesic opiates and method of treating hyperalgesic and pruritic conditions therewith” (priority 1997, dated 1999)
Counter-ions that a name gives are not always drawn.

Columns and labels:
[1] = test system: Compound 48/80-induced scratching; test: mouse scratch model: antagonism of Compound 48/80-induced scratching (anti-pruritic activity); type: in vivo, male Swiss albino mice; details: sc, 0.5 h, Compound 48/80 challenge, 30 min observation
Experimental: Testing was performed in a mouse scratch model under blind conditions.
Groups of 8-10 male Swiss albino mice (Hilltop Lab Animals, Inc., Scottsdale, Pa.), weighing […], were used in the testing. They were housed under controlled temperature of 23°-25° C. Food and water were freely available. Before the experiments, the mice were weighted, put into individual boxes and allowed to acclimate for 30 min.
Vehicle used to dissolve the test compounds: 20% w/w cremafor EL.
The compounds to be tested for anti-pruritic activity were dissolved in the vehicle of 20% w/w cremafor EL.
100 μl of the vehicle (3-5 doses, n=8-10) was injected s.c. into the back of the neck of mice 20 min. before challenging them with 100 μl of Compound 48/80 (2 mg/ml; […]) injected s.c. into the back of the neck.
To each mouse of a group of 8-10 mice previously subjected to the standard challenge various doses of the compounds, to be tested for anti-pruritic activity, were administered s.c. into the back of the neck.
For each group of 8-10 mice, the mean values for scratching were no to relative % antagonism of scratching and then plotted vs. dose of test compounds. Interval estimates of mean A50 were determined by nonlinear regression analysis (Kaleida Graph) and mean % inhibition of scratching was calculated.

[2] = in vivo; hydrochloride; cited from earlier work
[3] = in vivo, iv; cited from earlier work

Row | Structure (SMILES) | inhibition at 2.5 mg/kg [1] | inhibition at 5 mg/kg [1] | other results
1 | O=C(O)C1(c2ccccc2)CCN(CCC(c2ccccc2)(c2ccccc2)c2ccccn2)CC1 [(1), 1-[3,3-diphenyl-3-(2-pyridyl)propyl]-4-phenyl-4-piperidinecarboxylic acid hydrochloride] | 32% | 65% | inhibition at 10 mg/kg ([1]; 10.0 mg/kg): 83%
2 | OC1(Cc2ccc(Cl)cc2)CCN(CCC(c2ccccc2)(c2ccccc2)c2ccccc2)CC1 [(2), 1-(3,3,3-triphenylpropyl)-4-hydroxy-4-p-chlorobenzylpiperidine] | 68% | 94% | inhibition at 1 mg/kg ([1]; 1.0 mg/kg): 35%
3 | CN(C)C(=O)C(CCN1CCC(O)(c2ccc(Cl)cc2)CC1)(c1ccccc1)c1ccccc1 [Loperamide HCl, 4-(p-chlorophenyl)-4-hydroxy-N-N-dimethyl-α,α-diphenyl-1-piperidinebutyramide hydrochloride] | – | – | CNS effects [2]: completely free of the undesirable CNS effects
4 | CN1CC[C@]23c4c5ccc(O)c4O[C@H]2[C@@H](O)C=C[C@H]3[C@H]1C5 [morphine] | – | – | general itching, incidence [3]: about 1 % of patients
